Molecules are shown by their SMILES.

The target of the experiment is T1, androgen receptor (Homo sapiens, UniProt P10275).
T1 sequence (P10275 1-920 T878A): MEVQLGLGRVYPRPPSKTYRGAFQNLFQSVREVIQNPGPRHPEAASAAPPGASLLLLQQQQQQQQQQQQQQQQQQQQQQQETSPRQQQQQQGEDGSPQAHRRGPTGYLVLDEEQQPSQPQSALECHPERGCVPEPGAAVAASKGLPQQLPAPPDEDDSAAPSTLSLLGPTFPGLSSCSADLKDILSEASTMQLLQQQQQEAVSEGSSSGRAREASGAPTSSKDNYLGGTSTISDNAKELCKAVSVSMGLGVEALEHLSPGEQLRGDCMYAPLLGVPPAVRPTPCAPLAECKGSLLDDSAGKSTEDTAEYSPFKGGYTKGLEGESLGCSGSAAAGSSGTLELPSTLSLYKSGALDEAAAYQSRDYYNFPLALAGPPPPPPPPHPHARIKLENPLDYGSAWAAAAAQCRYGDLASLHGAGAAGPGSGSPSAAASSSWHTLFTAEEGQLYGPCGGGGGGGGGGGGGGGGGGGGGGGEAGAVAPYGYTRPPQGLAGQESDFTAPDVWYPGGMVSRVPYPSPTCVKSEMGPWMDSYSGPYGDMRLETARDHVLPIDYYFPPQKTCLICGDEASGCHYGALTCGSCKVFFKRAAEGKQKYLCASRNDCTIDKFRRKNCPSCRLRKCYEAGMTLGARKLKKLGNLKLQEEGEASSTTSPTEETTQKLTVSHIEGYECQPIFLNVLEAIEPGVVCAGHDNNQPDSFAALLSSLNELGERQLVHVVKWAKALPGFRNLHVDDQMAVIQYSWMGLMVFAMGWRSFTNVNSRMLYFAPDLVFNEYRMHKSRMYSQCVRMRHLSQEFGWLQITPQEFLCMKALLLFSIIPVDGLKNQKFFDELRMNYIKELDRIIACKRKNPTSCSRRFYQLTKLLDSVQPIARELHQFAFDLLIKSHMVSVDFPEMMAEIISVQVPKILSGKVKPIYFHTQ
The experiment is described as follows: Assay for binding affinity to androgen receptor ([3H]methyltrienolone radioligand, cell cytosol). The settings on record: 1 nM [3H]methyltrienolone, 24 hours at 4° C., Table 5. Here is the method:
Fractions of cell cytosol ([…] cell/point) were incubated for 24 hours at 4° C. with 1 nM [^3H]methyltrienolone in the absence or presence of the test compound in a buffer containing 25 mM Hepes-Tris (pH 7.4), 1 mM EDTA, 10 mM Na2MoO4, 2 mM DTT, 5 μM triamcinolone acetonide, and 10% glycerol. Nonspecific binding was determined in the presence of 1 μM testosterone. Following incubation, the samples were filtered rapidly under vacuum through glass fiber filters (GF/B, Packard) presoaked with 0.3% PEI and rinsed several times with ice-cold 50 mM Tris-HCl using a 96-sample cell harvester (Unifilter, Packard). The filters were dried then counted for radioactivity in a scintillation counter (Topcount, Packard) using a scintillation cocktail (Microscint 0, Packard). The results are expressed as a percent inhibition of the control radioligand specific binding. The standard reference compound is testosterone, which is tested in each experiment at several concentrations to obtain a competition curve from which its IC50 is calculated.
The Kd is a measure of binding affinity in units of concentration. `Cc1sc2c(c1C)C(c1ccc(Cl)cc1)=N[C@@H](CC(=O)NCCOC1CCN(c3ncc(C(=O)N[C@H]4C(C)(C)[C@H](Oc5ccc(C#N)c(Cl)c5)C4(C)C)cn3)CC1)c1nnc(C)n1-2` [Compound I-6] showed a Kd of under 50 nM.
`CCNC(=O)C[C@@H]1N=C(c2ccc(OCCCN(C)c3ncc(C(=O)N[C@H]4C(C)(C)[C@H](Oc5ccc(C#N)c(Cl)c5)C4(C)C)cn3)cc2)c2c(sc(C)c2C)-n2c(C)nnc21` [Compound I-81] showed a Kd of under 50 nM.
`Cc1sc2c(c1C)C(c1ccc(Cl)cc1)=N[C@@H](CC(=O)NCCOCCOCCOCCOCCOC1CCN(c3ncc(C(=O)N[C@H]4C(C)(C)[C@H](Oc5ccc(C#N)c(Cl)c5)C4(C)C)cn3)CC1)c1nnc(C)n1-2` [Compound I-8] yielded a Kd of under 50 nM.
The molecule `CCNC(=O)C[C@@H]1N=C(c2ccc(OCCCCc3ncc(C(=O)N[C@H]4C(C)(C)[C@H](Oc5ccc(C#N)c(Cl)c5)C4(C)C)cn3)cc2)c2c(sc(C)c2C)-n2c(C)nnc21` [Compound I-86] showed a Kd of under 50 nM.
To `Cc1sc2c(c1C)C(c1ccc(Cl)cc1)=N[C@@H](CC(=O)NCCN(C)c1ncc(C(=O)N[C@H]3C(C)(C)[C@H](Oc4ccc(C#N)c(Cl)c4)C3(C)C)cn1)c1nnc(C)n1-2` [Compound I-1, N-[3-(3-chloro-4-cyano-phenoxy)-2,2,4,4-tetramethyl-cyclobutyl]-2-[2-[[2-[(9S)-7-(4-chlorophenyl)-4,5,13-trimethyl-3-thia-1,8,11,12-tetrazatricyclo[8.3.0.02,6]trideca-2(6),4,7,10,12-pentaen-9-yl]acetyl]amino]ethyl-methyl-amino]pyrimidine-5-carboxamide] belongs under 50 nM; to `Cc1sc2c(c1C)C(c1cccc(OCCOCCOC3CCN(c4ncc(C(=O)N[C@H]5C(C)(C)[C@H](Oc6ccc(C#N)c(Cl)c6)C5(C)C)cn4)CC3)c1)=N[C@@H](CC(=O)O)c1nnc(C)n1-2` [Compound I-42], under 50 nM.
As for `Cc1sc2c(c1C)C(c1ccc(Cl)cc1)=N[C@@H](CC(=O)NCCCN1CCN(CCCN(C)c3ncc(C(=O)N[C@H]4C(C)(C)[C@H](Oc5ccc(C#N)c(Cl)c5)C4(C)C)cn3)CC1)c1nnc(C)n1-2` [Compound I-5, N-((1r,3r)-3-(3-chloro-4-cyanophenoxy)-2,2,4,4-tetramethylcyclobutyl)-2-((3-(4-(3-(2-((S)-4-(4-chlorophenyl)-2,3,9-trimethyl-6H-thieno[3,2-f][1,2,4]triazolo[4,3-a][1,4]diazepin-6-yl)acetamido)propyl)piperazin-1-yl)propyl)(methyl)amino)pyrimidine-5-carboxamide], the figure is under 50 nM.
As for `Cc1sc2c(c1C)C(c1ccc(Cl)cc1)=N[C@H](CC(=O)NCCOCCOCCOCCOCCOCCOCCOC1CCN(c3ncc(C(=O)N[C@H]4C(C)(C)[C@H](Oc5ccc(C#N)c(Cl)c5)C4(C)C)cn3)CC1)c1nnc(C)n1-2` [Compound I-9], the figure is under 50 nM; as for `Cc1sc2c(c1C)C(c1ccc(Cl)cc1)=N[C@@H](CC(=O)NCCCCOCCOC1CCN(c3ncc(C(=O)N[C@H]4C(C)(C)[C@H](Oc5ccc(C#N)c(Cl)c5)C4(C)C)cn3)CC1)c1nnc(C)n1-2` [Compound I-28], under 50 nM.
`Cc1sc2c(c1C)C(c1cccc(OCCOCCOCCOC3CCN(c4ncc(C(=O)N[C@H]5C(C)(C)[C@H](Oc6ccc(C#N)c(Cl)c6)C5(C)C)cn4)CC3)c1)=N[C@@H](CC(=O)O)c1nnc(C)n1-2` [Compound I-43] returned a Kd of under 50 nM.
Molecule `CCNC(=O)C[C@@H]1N=C(c2cccc(OCCOC3CCN(c4ncc(C(=O)N[C@H]5C(C)(C)[C@H](Oc6ccc(C#N)c(Cl)c6)C5(C)C)cn4)CC3)c2)c2c(sc(C)c2C)-n2c(C)nnc21` [Compound I-46, N-((1r,3r)-3-(3-chloro-4-cyanophenoxy)-2,2,4,4-tetramethylcyclobutyl)-2-(4-(2-(3-((S)-6-(2-(ethylamino)-2-oxoethyl)-2,3,9-trimethyl-6H-thieno[3,2-f][1,2,4]triazolo[4,3-a][1,4]diazepin-4-yl)phenoxy)ethoxy)piperidin-1-yl)pyrimidine-5-carboxamide] gave a Kd of under 50 nM.
As for `CCNC(=O)C[C@@H]1N=C(c2ccc(N3CC(N(C)C4CN(c5ncc(C(=O)N[C@H]6C(C)(C)[C@H](Oc7ccc(C#N)c(Cl)c7)C6(C)C)cn5)C4)C3)cc2)c2c(sc(C)c2C)-n2c(C)nnc21` [Compound I-121], the figure is under 50 nM.
As for `Cc1sc2c(c1C)C(c1ccc(Cl)cc1)=N[C@@H](CC(=O)NCCOCCOCCOCCOCCOCCOCCN(C)c1ncc(C(=O)N[C@H]3C(C)(C)[C@H](Oc4ccc(C#N)c(Cl)c4)C3(C)C)cn1)c1nnc(C)n1-2` [Compound I-4], the figure is under 50 nM; as for `Cc1sc2c(c1C)C(c1ccc(N3CC(C4CCN(c5ncc(C(=O)N[C@H]6C(C)(C)[C@H](Oc7ccc(C#N)c(Cl)c7)C6(C)C)cn5)CC4)C3)cc1)=N[C@@H](C)c1nnc(C)n1-2` [Compound I-271], under 50 nM; as for `Cc1sc2c(c1C)C(c1ccc(Cl)cc1)=N[C@@H](CC(=O)NCCCCCCCOC1CCN(c3ncc(C(=O)N[C@H]4C(C)(C)[C@H](Oc5ccc(C#N)c(Cl)c5)C4(C)C)cn3)CC1)c1nnc(C)n1-2` [Compound I-24], under 50 nM.
As for `Cc1sc2c(c1C)C(c1ccc(OC3CC4(C3)CC3(CCN(c5ncc(C(=O)N[C@H]6C(C)(C)[C@H](Oc7ccc(C#N)c(Cl)c7)C6(C)C)cn5)CC3)C4)cc1)=N[C@@H](Cc1ncco1)c1nnc(C)n1-2` [Compound I-283], the figure is under 50 nM; as for `Cc1sc2c(c1C)C(c1ccc(OCCOCCOCCOC3CCN(c4ncc(C(=O)N[C@H]5C(C)(C)[C@H](Oc6ccc(C#N)c(Cl)c6)C5(C)C)cn4)CC3)cc1)=N[C@@H](CC(=O)O)c1nnc(C)n1-2` [Compound I-40], under 50 nM; as for `Cc1sc2c(c1C)C(c1cccc(OCCOC3CCN(c4ncc(C(=O)N[C@H]5C(C)(C)[C@H](Oc6ccc(C#N)c(Cl)c6)C5(C)C)cn4)CC3)c1)=N[C@@H](CC(=O)O)c1nnc(C)n1-2` [Compound I-41], under 50 nM.
As to `Cc1sc2c(c1C)C(c1ccc(Cl)cc1)=N[C@@H](CC(=O)NCCOCCOCCOCC1CN(c3ncc(C(=O)N[C@H]4C(C)(C)[C@H](Oc5ccc(C#N)c(Cl)c5)C4(C)C)cn3)C1)c1nnc(C)n1-2` [Compound I-18], the Kd was under 50 nM.
In turn, `CCNC(=O)C[C@@H]1N=C(c2cccc(OCCOCCOCCOC3CCN(c4ncc(C(=O)N[C@H]5C(C)(C)[C@H](Oc6ccc(C#N)c(Cl)c6)C5(C)C)cn4)CC3)c2)c2c(sc(C)c2C)-n2c(C)nnc21` [Compound I-48, N-((1r,3r)-3-(3-chloro-4-cyanophenoxy)-2,2,4,4-tetramethylcyclobutyl)-2-(4-(2-(2-(2-(3-((S)-6-(2-(ethylamino)-2-oxoethyl)-2,3,9-trimethyl-6H-thieno[3,2-f][1,2,4]triazolo[4,3-a][1,4]diazepin-4-yl)phenoxy)ethoxy)ethoxy)ethoxy)piperidin-1-yl)pyrimidine-5-carboxamide] returned a Kd of under 50 nM.
To `CCNC(=O)C[C@@H]1N=C(c2cccc(OCCOCCOC3CCN(c4ncc(C(=O)N[C@H]5C(C)(C)[C@H](Oc6ccc(C#N)c(Cl)c6)C5(C)C)cn4)CC3)c2)c2c(sc(C)c2C)-n2c(C)nnc21` [Compound I-47, N-((1r,3r)-3-(3-chloro-4-cyanophenoxy)-2,2,4,4-tetramethylcyclobutyl)-2-(4-(2-(2-(3-((S)-6-(2-(ethylamino)-2-oxoethyl)-2,3,9-trimethyl-6H-thieno[3,2-f][1,2,4]triazolo[4,3-a][1,4]diazepin-4-yl)phenoxy)ethoxy)ethoxy)piperidin-1-yl)pyrimidine-5-carboxamide] belongs under 50 nM.
As for `Cc1sc2c(c1C)C(c1ccc(Cl)cc1)=N[C@@H](CC(=O)NCCCN1CCN(CC3CCN(c4ncc(C(=O)N[C@H]5C(C)(C)[C@H](Oc6ccc(C#N)c(Cl)c6)C5(C)C)cn4)CC3)CC1)c1nnc(C)n1-2` [Compound I-36, N-((1r,3r)-3-(3-chloro-4-cyanophenoxy)-2,2,4,4-tetramethylcyclobutyl)-2-(4-((4-(3-(2-((S)-4-(4-chlorophenyl)-2,3,9-trimethyl-6H-thieno[3,2-f][1,2,4]triazolo[4,3-a][1,4]diazepin-6-yl)acetamido)propyl)piperazin-1-yl)methyl)piperidin-1-yl)pyrimidine-5-carboxamide], the figure is under 50 nM.

The values above are taken from patent US20260062422A1 (Halda Therapeutics OpCo, Inc., priority 2022, published 2026).
